The values that follow come from US20030152536A1, “Cosmetic preparations containing waltheria indica extracts” (priority 2000, published 2003).

In the experiment the test system is melanin index of forearm skin. Briefly: In vivo lightening of color on the forearm of 41 volunteers with Asiatic skin color (melanin index D56/D0). The arrangement: species or system human. Particulars: D0 melanin index before, D56 after treatment. The protocol:
The effectiveness of the preparations according to the invention by comparison with known preparations was tested in vitro by inhibition of the synthesis of melanin in B 16 melanocytes. The concentration of the active principles (in % by weight) in the cell culture medium and the inhibition in %-rel. in relation to the blank value are shown. An in vivo test was also carried out by measuring the lightening of color on the extensor muscle side of the forearm of 41 volunteers with Asiatic skin color. The depigmenting activity D56/D0 is shown, D0 standing for the melanin index before the treatment and D56 for the index after the treatment.

As for `OC[C@H]1O[C@@H](Oc2ccc(O)cc2)[C@H](O)[C@@H](O)[C@@H]1O` [Arbutin], the D56/D0 (concentration 0.1) was 54 and the D56/D0 (concentration 0.3) was 30.
